Results published in PubChem BioAssay AID328 (DTP/NCI, 2004).
“And” between values parts separate entries of the source, which are not always exact repeats. Equal entries are not always repeated. Toxic doses and inconclusive results are not listed.

Tested on: BDF1 mice, P388 leukemia ip, median survival T/C
Assay: NCI In Vivo Anticancer Drug Screen. Data for tumor model P388 Leukemia (intraperitoneal) in B6D2F1 (BDF1) mice
Settings: endpoint: median survival time, higher = longer survival
Outline: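 T/C = treated-group survival ÷ vehicle-control survival; tumour transplanted into mice before dosing.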

[1] = dose: 100.0 mg/kg/injection, schedule: Q01DX009 (ip), vehicle: saline with Tween-80
[2] = dose: 200.0 mg/kg/injection, schedule: Q01DX009 (ip), vehicle: saline with Tween-80
[3] = dose: 50.0 mg/kg/injection, schedule: Q01DX009 (ip), vehicle: saline with Tween-80

For `CN1CCN(Cc2nc3cccc4c3c([n+]2[O-])-c2ccccc2-4)CC1`, the T/C (dose: 40.0 mg/kg/injection, schedule: Q06HX032 (ip), vehicle: saline with Tween-80) was 100 % of control, the T/C (dose: 50.0 mg/kg/injection, schedule: Q03HX008 (ip), vehicle: saline with Tween-80) was 107 % of control and the T/C (dose: 50.0 mg/kg/injection, schedule: Q03HX024 (ip), vehicle: saline with Tween-80) was 109 % of control. The T/C (dose: 80.0 mg/kg/injection, schedule: Q01DX009 (ip), vehicle: saline with Tween-80) was 118 % of control, the T/C (dose: 80.0 mg/kg/injection, schedule: Q03HX008 (ip), vehicle: saline with Tween-80) was 120 % of control and the T/C (dose: 100.0 mg/kg/injection, schedule: Q01DX009 (ip), vehicle: saline) was 158 % of control. The T/C (dose: 100.0 mg/kg/injection, schedule: Q01DX009 (oral), vehicle: saline with Tween-80) was 107 % of control, the T/C (dose: 100.0 mg/kg/injection, schedule: Q01DX Z (ip), vehicle: saline) was 159 % of control and the T/C (dose: 100.0 mg/kg/injection, schedule: Q03HX008 (oral), vehicle: saline with Tween-80) was 105 % of control. For the same compound, the T/C (dose: 100.0 mg/kg/injection, schedule: Q03HX024 (ip), vehicle: saline with Tween-80) was 162 % of control, the T/C (dose: 100.0 mg/kg/injection, schedule: Q08HX009 (oral), vehicle: saline with Tween-80) was 100 % of control and the T/C (dose: 100.0 mg/kg/injection, schedule: Q08HX027 (oral), vehicle: saline with Tween-80) was 120 % of control. For the same compound, the T/C (dose: 150.0 mg/kg/injection, schedule: Q01DX009 (ip), vehicle: saline) was 150 % of control, the T/C (dose: 150.0 mg/kg/injection, schedule: Q01DX009 (oral), vehicle: saline with Tween-80) was 112 % of control and the T/C (dose: 150.0 mg/kg/injection, schedule: Q04DX003 (oral), vehicle: saline with Tween-80) was 99 % of control. For the same compound, the T/C (dose: 150.0 mg/kg/injection, schedule: Q08HX009 (oral), vehicle: saline with Tween-80) was 112 % of control, the T/C (dose: 175.0 mg/kg/injection, schedule: Q08HX027 (oral), vehicle: saline with Tween-80) was 161 % of control and the T/C (dose: 200.0 mg/kg/injection, schedule: Q01DX009 (oral), vehicle: saline with Tween-80) was 110 % of control. The T/C (dose: 200.0 mg/kg/injection, schedule: Q03HX024 (oral), vehicle: saline with Tween-80) was 152 % of control, the T/C (dose: 200.0 mg/kg/injection, schedule: Q04DX003 (oral), vehicle: saline with Tween-80) was 110 % of control and the T/C (dose: 200.0 mg/kg/injection, schedule: Q08HX009 (oral), vehicle: saline with Tween-80) was 103 % of control. For the same compound, the T/C (dose: 200.0 mg/kg/injection, schedule: Q08HX027 (oral), vehicle: saline with Tween-80) was 90 % of control, the T/C (dose: 250.0 mg/kg/injection, schedule: Q01DX009 (oral), vehicle: saline with Tween-80) was 117 % of control and the T/C (dose: 250.0 mg/kg/injection, schedule: Q04DX003 (oral), vehicle: saline with Tween-80) was 100 % of control. The T/C (dose: 250.0 mg/kg/injection, schedule: Q08HX009 (oral), vehicle: saline with Tween-80) was 116 % of control and the T/C (dose: 300.0 mg/kg/injection, schedule: Q04DX003 (oral), vehicle: saline with Tween-80) was 105 % of control.

`COc1cc(C(C)O)cc(OC)c1OC` (stereo unspecified) was tested, and the T/C [1] was 92 % of control, the T/C (dose: 100.0 mg/kg/injection, schedule: Q04DX003 (ip), vehicle: saline with Tween-80) was 95 % of control and the T/C [2] was 92 % of control. For the same compound, the T/C (dose: 200.0 mg/kg/injection, schedule: Q04DX003 (ip), vehicle: saline with Tween-80) was 104 % of control and the T/C (dose: 400.0 mg/kg/injection, schedule: Q04DX003 (ip), vehicle: saline with Tween-80) was 95 % of control.

`CC(=O)[O][Hg][c]1c(C)c(C)c(C)c(C)c1C` was tested, and the T/C (dose: 3.12 mg/kg/injection, schedule: Q01DX009 (ip), vehicle: Klucel (hydroxypropylcellulose) (HPC)) was 98 % of control, the T/C (dose: 6.25 mg/kg/injection, schedule: Q01DX009 (ip), vehicle: Klucel (hydroxypropylcellulose) (HPC)) was 109 % of control and the T/C (dose: 12.5 mg/kg/injection, schedule: Q01DX009 (ip), vehicle: Klucel (hydroxypropylcellulose) (HPC)) was 90 % of control and 107 % of control.

`CS(=O)(=O)OCCN(CCOS(C)(=O)=O)c1ccccc1` was tested, and the T/C (dose: 16.5 mg/kg/injection, schedule: Q04DX003 (ip), vehicle: saline with Tween-80) was 150 % of control, the T/C (dose: 16.5 mg/kg/injection, schedule: Q04DX003 (ip), vehicle: saline) was 113 % of control and the T/C (dose: 37.5 mg/kg/injection, schedule: Q04DX003 (ip), vehicle: saline with Tween-80) was 222 % of control.

With `CN(C)c1ccc(/C=C/c2cc(N(CCO)CCO)c3ccccc3n2)cc1` the T/C [3] was 100 % of control, the T/C [1] was 99 % of control and the T/C [2] was 91 % of control.

With `O=C(NCc1cnccn1)Nc1ccccc1` the T/C (dose: 25.0 mg/kg/injection, schedule: Q04DX003 (ip), vehicle: saline) was 104 % of control, the T/C (dose: 50.0 mg/kg/injection, schedule: Q04DX003 (ip), vehicle: saline) was 103 % of control and the T/C (dose: 100.0 mg/kg/injection, schedule: Q04DX003 (ip), vehicle: saline) was 87 % of control. The T/C (dose: 200.0 mg/kg/injection, schedule: Q04DX003 (ip), vehicle: saline) was 100 % of control and the T/C (dose: 400.0 mg/kg/injection, schedule: Q04DX003 (ip), vehicle: saline) was 100 % of control.

In the case of `Cc1ncc(CO)c(C)c1O`, the T/C (dose: 12.5 mg/kg/injection, schedule: Q01DX010 (ip), vehicle: saline) is reported as 100 % of control, the T/C (dose: 25.0 mg/kg/injection, schedule: Q01DX010 (ip), vehicle: saline) is reported as 100 % of control and the T/C (dose: 50.0 mg/kg/injection, schedule: Q01DX010 (ip), vehicle: saline) is reported as 100 % of control. For the same compound, the T/C (dose: 100.0 mg/kg/injection, schedule: Q01DX010 (ip), vehicle: saline) was 100 % of control.

`C=C(CC(N)=O)C(=O)O` (tested in a mixture with another compound) was tested, and the T/C (dose: 88.0 mg/kg/injection, schedule: Q01DX003 (ip), vehicle: saline) was 109 % of control and 113 % of control, the T/C (dose: 177.0 mg/kg/injection, schedule: Q01DX003 (ip), vehicle: saline) was 109 % of control and 122 % of control and the T/C (dose: 266.0 mg/kg/injection, schedule: Q01DX003 (ip), vehicle: saline) was 109 % of control and 122 % of control. For the same compound, the T/C (dose: 400.0 mg/kg/injection, schedule: Q01DX003 (ip), vehicle: saline) was 118 % of control and 122 % of control and the T/C (dose: 600.0 mg/kg/injection, schedule: Q01DX003 (ip), vehicle: saline) was 118 % of control.

`CN(C)c1ccc(/C=C\C(=O)c2ccccc2)cc1` was tested, and the T/C (dose: 100.0 mg/kg/injection, schedule: Q01DX009 (ip), vehicle: Klucel (hydroxypropylcellulose) (HPC)) was 100 % of control, the T/C (dose: 200.0 mg/kg/injection, schedule: Q01DX009 (ip), vehicle: Klucel (hydroxypropylcellulose) (HPC)) was 110 % of control and the T/C (dose: 400.0 mg/kg/injection, schedule: Q01DX009 (ip), vehicle: Klucel (hydroxypropylcellulose) (HPC)) was 120 % of control.

In the case of `CCCCCCCCCCCCO[P+](=O)OCCCCCCCCCCCC`, the T/C (dose: 200.0 mg/kg/injection, schedule: Q04DX003 (ip), vehicle: saline sonified) is reported as 100 % of control and the T/C (dose: 400.0 mg/kg/injection, schedule: Q04DX003 (ip), vehicle: saline sonified) is reported as 100 % of control.

With `O=C(/C=C/c1ccc(OCc2ccccc2)cc1)c1ccccc1F` the T/C [3] was 96 % of control, the T/C [1] was 100 % of control and the T/C [2] was 96 % of control.

With `O=C1N[C@@H]([C@H]2CC[C@H](Cl)CN2)C(=O)N[C@H]1[C@H]1CC[C@H](Cl)CN1` the T/C (dose: 0.1 mg/kg/injection, schedule: Q01DX010 (ip), vehicle: saline) was 154 % of control, the T/C (dose: 0.2 mg/kg/injection, schedule: Q01DX010 (ip), vehicle: saline) was 181 % of control and the T/C (dose: 0.4 mg/kg/injection, schedule: Q01DX010 (ip), vehicle: saline) was 227 % of control. For the same compound, the T/C (dose: 1.44 mg/kg/injection, schedule: Q04DX003 (ip), vehicle: saline) was 170 % of control, the T/C (dose: 1.44 mg/kg/injection, schedule: Q04DX003 (ip), vehicle: water) was 179 % of control and the T/C (dose: 2.4 mg/kg/injection, schedule: Q04DX003 (ip), vehicle: saline) was 184 % of control. The T/C (dose: 2.4 mg/kg/injection, schedule: Q04DX003 (ip), vehicle: water) was 192 % of control, the T/C (dose: 2.5 mg/kg/injection, schedule: Q01DX001 (ip), vehicle: saline) was 177 % of control and the T/C (dose: 4.0 mg/kg/injection, schedule: Q04DX003 (ip), vehicle: saline) was 252 % of control. For the same compound, the T/C (dose: 4.0 mg/kg/injection, schedule: Q04DX003 (ip), vehicle: water) was 259 % of control, the T/C (dose: 5.0 mg/kg/injection, schedule: Q01DX001 (ip), vehicle: saline) was 209 % of control and the T/C (dose: 6.67 mg/kg/injection, schedule: Q04DX003 (ip), vehicle: saline) was 118 % of control. For the same compound, the T/C (dose: 6.67 mg/kg/injection, schedule: Q04DX003 (ip), vehicle: water) was 118 % of control.

In the case of `CCCC(=O)Nc1ccc([N+](=O)[O-])cc1OC`, the T/C [1] is reported as 90 % of control, the T/C [2] is reported as 100 % of control and the T/C (dose: 400.0 mg/kg/injection, schedule: Q01DX009 (ip), vehicle: saline with Tween-80) is reported as 100 % of control.

With `COC(=O)CS(=O)(=O)C(C)(C)C(=O)c1ccccc1` the T/C (dose: 75.0 mg/kg/injection, schedule: Q01DX001 (ip), vehicle: other) was 100 % of control, the T/C (dose: 150.0 mg/kg/injection, schedule: Q01DX001 (ip), vehicle: other) was 120 % of control and the T/C (dose: 300.0 mg/kg/injection, schedule: Q01DX001 (ip), vehicle: other) was 110 % of control.
